From patent publication US20250154138A1, “Small Molecule IL-17A Modulators” (BeiGene, Ltd., priority 2022, published 2025)
pIC50: −log10 of the molar value.

What was measured:
[1] = biological target: human IL-17A / human IL-17RA (Homo sapiens (Human), UniProt Q16552); assay: Human IL-17A biochemical assay (HTRF, blocking of IL-17A binding to IL-17RA); details: 0.4 nM IL-17A, 0.3 nM IL-17RA, max compound concentration 10 uM
Outline: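 HTRF readout (ex337, em620/665 nm ratio) after anti-6His Tb cryptate and anti-human IgG-XL665 detection, 1 h RT. Beforehand, 0.4 nM IL-17A sat with compound 3 h RT, then 0.3 nM IL-17RA 1 h. IC50 by four-parameter logistic fit.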

[2] = test system: IL-17-induced GROα secretion from HT-29 cells; assay: GROα release assay in human colorectal adenocarcinoma epithelial cell (HT-29, ELISA); type: cell-based; details: Homo sapiens, HT-29, 48 h, 10 ng/mL IL-17A, highest concentration 10 μM, read-out: Cellular assay HT29 cell/CXCL1 IC50
Outline: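 IC50 values come from four-parameter fits of GROα levels, quantified by ELISA (450 nm, standard curve) in supernatants. Compounds, 4-fold serially diluted from 10 μM, were mixed 15 min with IL-17A (10 ng/mL final) before 48 h incubation with HT-29 cells at 37°C.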

Chain of human IL-17A / human IL-17RA (Q16552 24-155): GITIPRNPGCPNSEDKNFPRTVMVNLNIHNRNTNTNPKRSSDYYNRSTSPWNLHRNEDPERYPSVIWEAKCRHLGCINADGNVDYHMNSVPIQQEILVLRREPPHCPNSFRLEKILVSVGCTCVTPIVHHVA

| SMILES | pIC50 [1] | pIC50 [2] |
| --- | --- | --- |
| COCC1(N2CC3(CC3)CNC2=O)Cc2ccc(NC(=O)[C@@H](NC(=O)c3ccnn3C)C3CCCCC3)cc2C1 (stereo partly drawn) [Example 156, N-((1S)-1-cyclohexyl-2-((2-(methoxymethyl)-2-(6-oxo-5,7-diazaspiro[2.5]octan-5-yl)-2,3-dihydro-1H-inden-5-yl)amino)-2-oxoethyl)-1-methyl-1H-pyrazole-5-carboxamide] | 7.17 | 6.52 |
| CNC(=O)C1(N2CC3(CC3)CNC2=O)Cc2ccc(NC(=O)[C@@H](NC(=O)c3ccc(C#N)n3C3CC3)C3CCCCC3)cc2C1 (stereo partly drawn) [Example 157, 5-cyano-N-((1S)-1-cyclohexyl-2-((2-(methylcarbamoyl)-2-(6-oxo-5,7-diazaspiro[2.5]octan-5-yl)-2,3-dihydro-1H-inden-5-yl)amino)-2-oxoethyl)-1-cyclopropyl-1H-pyrrole-2-carboxamide] | 7.43 | 6.40 |
| CNC(=O)C1(N2CC3(CC3)CNC2=O)Cc2ccc(NC(=O)[C@@H](NC(=O)C(F)(F)c3cccc(C#N)c3)C3CCCCC3)cc2C1 (stereo partly drawn) [Example 158, 5-((S)-2-(2-(3-cyanophenyl)-2,2-difluoroacetamido)-2-cyclohexylacetamido)-N-methyl-2-(6-oxo-5,7-diazaspiro[2.5]octan-5-yl)-2,3-dihydro-1H-indene-2-carboxamide] | 6.91 | 7.31 |
| COCC1(N2CC3(CC3)CNC2=O)Cc2ccc(NC(=O)[C@@H](NC(=O)c3ccnn3C)C(C3CC3)C3CC3)cc2C1 (stereo partly drawn) [Example 159, N-((2S)-1,1-dicyclopropyl-3-((2-(methoxymethyl)-2-(6-oxo-5,7-diazaspiro[2.5]octan-5-yl)-2,3-dihydro-1H-inden-5-yl)amino)-3-oxopropan-2-yl)-1-methyl-1H-pyrazole-5-carboxamide] | 7.27 | 6.73 |
| COCC1(N2CC3(CC3)CNC2=O)Cc2ccc(NC(=O)[C@@H](NC(=O)c3ccnn3C(C)C)C(C3CC3)C3CC3)cc2C1 (stereo partly drawn) [Example 160, N-((2S)-1,1-dicyclopropyl-3-((2-(methoxymethyl)-2-(6-oxo-5,7-diazaspiro[2.5]octan-5-yl)-2,3-dihydro-1H-inden-5-yl)amino)-3-oxopropan-2-yl)-1-isopropyl-1H-pyrazole-5-carboxamide] | 6.96 | 7.03 |
| Cn1nccc1C(=O)N[C@H](C(=O)Nc1ccc2c(c1)CC(CNc1ccccc1)(N1CC3(CC3)CNC1=O)C2)C1CCCCC1 (stereo partly drawn) [Example 161, N-((1S)-1-cyclohexyl-2-oxo-2-((2-(6-oxo-5,7-diazaspiro[2.5]octan-5-yl)-2-((phenylamino)methyl)-2,3-dihydro-1H-inden-5-yl)amino)ethyl)-1-methyl-1H-pyrazole-5-carboxamide] | 6.92 | 6.84 |
| CC(C)[C@@H]1CN(C2Cc3ccc(NC(=O)[C@@H](NC(=O)c4ccnn4C)C4CCCCC4)cc3C2)C(=O)N1 (stereo partly drawn) [Example 162, N-((1S)-1-cyclohexyl-2-((2-((R)-4-isopropyl-2-oxoimidazolidin-1-yl)-2,3-dihydro-1H-inden-5-yl)amino)-2-oxoethyl)-1-methyl-1H-pyrazole-5-carboxamide] | 6.27 | 5.97 |
| CC(C)[C@@H]1CN(C2(C(=O)NCc3ccccn3)Cc3ccc(NC(=O)[C@@H](NC(=O)c4ccnn4C)C4CCCCC4)cc3C2)C(=O)N1 (stereo partly drawn) [Example 163, N-((1S)-1-cyclohexyl-2-((2-((R)-4-isopropyl-2-oxoimidazolidin-1-yl)-2-((pyridin-2-ylmethyl)carbamoyl)-2,3-dihydro-1H-inden-5-yl)amino)-2-oxoethyl)-1-methyl-1H-pyrazole-5-carboxamide] | 7.72 | 7.41 |
| CNC(=O)C1(N2CC3(CC3)CNC2=O)Cc2ccc(NC(=O)C(NC(=O)c3ccnn3C)C3CCC(C(F)(F)F)CC3)cc2C1 (stereo not drawn) [Example 164, 1-methyl-N-(2-((2-(methylcarbamoyl)-2-(6-oxo-5,7-diazaspiro[2.5]octan-5-yl)-2,3-dihydro-1H-inden-5-yl)amino)-2-oxo-1-(4-(trifluoromethyl)cyclohexyl)ethyl)-1H-pyrazole-5-carboxamide] | 7.45 | 6.95 |
| CC[C@H]1CC[C@H]([C@H](NC(=O)c2ccnn2C)C(=O)Nc2ccc3c(c2)CC(COC)(N2CC4(CC4)CNC2=O)C3)CC1 (stereo partly drawn) [Example 165, N-((1S)-1-((1r,4S)-4-ethylcyclohexyl)-2-((2-(methoxymethyl)-2-(6-oxo-5,7-diazaspiro[2.5]octan-5-yl)-2,3-dihydro-1H-inden-5-yl)amino)-2-oxoethyl)-1-methyl-1H-pyrazole-5-carboxamide] | 6.76 | 6.49 |
| CC[C@@H]1CN(C2(C(=O)NC)Cc3ccc(NC(=O)[C@@H](NC(=O)c4ccnn4C)C(C4CC4)C4CC4)cc3C2)C(=O)N1 (stereo partly drawn) [Example 166, N-((2S)-1,1-dicyclopropyl-3-((2-((R)-4-ethyl-2-oxoimidazolidin-1-yl)-2-(methylcarbamoyl)-2,3-dihydro-1H-inden-5-yl)amino)-3-oxopropan-2-yl)-1-methyl-1H-pyrazole-5-carboxamide] | 6.77 | 6.87 |
| CNC(=O)C1(N2CC3(CC3)CNC2=O)Cc2ccc(NC(=O)[C@@H](NC(=O)c3c(F)cnn3C)C3CCCCC3)cc2C1 (stereo partly drawn) [Example 167, N-((1S)-1-cyclohexyl-2-((2-(methylcarbamoyl)-2-(6-oxo-5,7-diazaspiro[2.5]octan-5-yl)-2,3-dihydro-1H-inden-5-yl)amino)-2-oxoethyl)-4-fluoro-1-methyl-1H-pyrazole-5-carboxamide] | 6.90 | 6.66 |
| CNC(=O)C1(N2CC3(CC3)CNC2=O)Cc2ccc(NC(=O)C(NC(=O)c3ccnn3C)C3CCC(CC(F)(F)F)CC3)cc2C1 (stereo not drawn) [Example 168, 1-methyl-N-(2-((2-(methylcarbamoyl)-2-(6-oxo-5,7-diazaspiro[2.5]octan-5-yl)-2,3-dihydro-1H-inden-5-yl)amino)-2-oxo-1-(4-(2,2,2-trifluoroethyl)cyclohexyl)ethyl)-1H-pyrazole-5-carboxamide] | 7.48 | 7.22 |
| CC(C)[C@@H]1CN(C2(c3nc4ccccc4[nH]3)Cc3ccc(NC(=O)[C@@H](NC(=O)c4ccnn4C)C4CCCCC4)cc3C2)C(=O)N1 (stereo partly drawn) [Example 169, N-((1S)-2-((2-(1H-benzo[d]imidazol-2-yl)-2-((R)-4-isopropyl-2-oxoimidazolidin-1-yl)-2,3-dihydro-1H-inden-5-yl)amino)-1-cyclohexyl-2-oxoethyl)-1-methyl-1H-pyrazole-5-carboxamide] | 7.25 | 7.19 |
| CC(C)C1(N2CC3(CC3)CNC2=O)Cc2ccc(NC(=O)[C@@H](NC(=O)c3ccnn3C)C3CCCCC3)cc2C1 (stereo partly drawn) [Example 170, N-((1S)-1-cyclohexyl-2-((2-isopropyl-2-(6-oxo-5,7-diazaspiro[2.5]octan-5-yl)-2,3-dihydro-1H-inden-5-yl)amino)-2-oxoethyl)-1-methyl-1H-pyrazole-5-carboxamide] | 6.77 | 6.64 |
| CC[C@H]1CC[C@H]([C@H](NC(=O)c2ccnn2C)C(=O)Nc2ccc3c(c2)CC(C(=O)NC)(N2CC4(CC4)CNC2=O)C3)CC1 (stereo partly drawn) [Example 171, N-((1S)-1-((1r,4S)-4-ethylcyclohexyl)-2-((2-(methylcarbamoyl)-2-(6-oxo-5,7-diazaspiro[2.5]octan-5-yl)-2,3-dihydro-1H-inden-5-yl)amino)-2-oxoethyl)-1-methyl-1H-pyrazole-5-carboxamide] | 8.15 | 8.01 |
| Cn1nccc1C(=O)N[C@H](C(=O)Nc1ccc2c(c1)CC(CNc1ccccc1F)(N1CC3(CC3)CNC1=O)C2)C1CCCCC1 (stereo partly drawn) [Example 172, N-((1S)-1-cyclohexyl-2-((2-(((2-fluorophenyl)amino)methyl)-2-(6-oxo-5,7-diazaspiro[2.5]octan-5-yl)-2,3-dihydro-1H-inden-5-yl)amino)-2-oxoethyl)-1-methyl-1H-pyrazole-5-carboxamide] | 6.40 | 6.42 |
| CNC(=O)C1(N2CC3(CNC2=O)CC(F)(F)C3)Cc2ccc(NC(=O)[C@@H](NC(=O)c3ccnn3C)C3CCCCC3)cc2C1 (stereo partly drawn) [Example 174, N-((1S)-1-cyclohexyl-2-((2-(2,2-difluoro-7-oxo-6,8-diazaspiro[3.5]nonan-6-yl)-2-(methylcarbamoyl)-2,3-dihydro-1H-inden-5-yl)amino)-2-oxoethyl)-1-methyl-1H-pyrazole-5-carboxamide] | 6.58 | 6.31 |
| Cn1nccc1C(=O)N[C@H](C(=O)Nc1ccc2c(c1)CC(C(=O)NCc1ccccc1F)(N1CC3(CC3)CNC1=O)C2)C1CCCCC1 (stereo partly drawn) [Example 175, N-((1S)-1-cyclohexyl-2-((2-((2-fluorobenzyl)carbamoyl)-2-(6-oxo-5,7-diazaspiro[2.5]octan-5-yl)-2,3-dihydro-1H-inden-5-yl)amino)-2-oxoethyl)-1-methyl-1H-pyrazole-5-carboxamide] | 7.65 | 8.00 |
| CNC(=O)C1(N2CC3(CC3)CNC2=O)Cc2ccc(NC(=O)[C@@H](NC(=O)C(F)(F)c3ccc(C#N)n3C)C3CCCCC3)cc2C1 (stereo partly drawn) [Example 176, 5-((S)-2-(2-(5-cyano-1-methyl-1H-pyrrol-2-yl)-2,2-difluoroacetamido)-2-cyclohexylacetamido)-N-methyl-2-(6-oxo-5,7-diazaspiro[2.5]octan-5-yl)-2,3-dihydro-1H-indene-2-carboxamide] | 7.16 | 6.54 |
| CC(C)n1nccc1C(=O)N[C@H](C(=O)Nc1ccc2c(c1)CC(N1C[C@@H](C(F)(F)F)NC1=O)C2)C(C1CC1)C1CC1 (stereo partly drawn) [Example 177, N-((2S)-1,1-dicyclopropyl-3-oxo-3-((2-((S)-2-oxo-4-(trifluoromethyl)imidazolidin-1-yl)-2,3-dihydro-1H-inden-5-yl)amino)propan-2-yl)-1-isopropyl-1H-pyrazole-5-carboxamide] | 7.27 | 7.23 |
